Source: patent publication US10420758B2, “Indolinyl-sulfonamide inhibitors of tankyrase and methods of use thereof” (The Board of Regents of the University of Texas System, priority 2015, dated 2019)

Columns and labels:
telomerase = molecular target: T1, telomerase (Homo sapiens, UniProt O14746); assay: Digital droplet telomerase extension (ddTRAP) assay; assay type: cell-based; details: HeLa cells treated for 24 hrs, FIG. 4F
T1 construct: endogenous in cells; host or cells: HeLa
From the text: FIGS. 4A-4F show Tnks inhibitors induce telomeric stress in human cells independently of Wnt/β-catenin pathway inhibition. (FIG. 4A) Porcn inhibitors afford a Tnks-independent approach to disrupting Wnt/β-catenin signaling. Chemicals targeting the Wnt acyltransferase Porcn abrogate Wnt palmitoylation which in turn results in loss of activity of the Frizzled (Fzd) family of Wnt receptors. Fzd receptors directly induce activation of the cytoplasmic signaling molecule Dishevelled (Dvl) in a ligand-dependent manner, which in turn results in activation of β-catenin and transcription mediated by the TCF family of DNA binding proteins. […] The appearance of co-localized Terf2 and pH2A.X (an indicator of DNA damage at the telomere ends; Telomere Induced Foci or TIFs) was scored using indirect immunofluorescence in Hela cells (expressing wild-type Apc protein). (FIG. 4C) Quantification of results represented in “B”. Cells with >5 TIFs were scored as positive for telomeric damage (left bars). […]
The ddTRAP assay was performed as previously described (Ludlow, et al., 2014). […] Fluorescence was quantitated using a QX200 droplet reader (Bio-Rad) in the 6-Fam channel. Thresholds for quantitation were determined by comparison to a telomerase negative fibroblast cell line and no cell input negative control samples and untreated Hela cell positive control samples.

[1] = tested on: Tnks 1 and 2, Axin, β-catenin in SW480 cells; assay: Western blot of Tnks, Axin and β-catenin levels in SW480 cells; assay type: cell-based; details: SW480 cells (truncated Apc), FIG. 1A
Experimental: (FIG. 1A) Biochemical markers of Tnks inhibition associated with the Wnt/β-catenin pathway. […] (FIG. 1B) A biochemical screen to identify additional Tnks inhibitors from the IWR collection of Wnt pathway inhibitors. The effects of the IWR compounds on Tnks 1 and 2, β-catenin, and acetylated tubulin (Ac-Tub; loading control) expression levels were determined in SW480 cells by Western blot analysis.
For Western blot analysis cell lysates were generated with either PBS-NP40 buffer [phosphate-buffered saline (PBS)/1% NP40], or Tris-Triton X-100 buffer [50 mM Tris (pH 8), 200 mM NaCl, 1 mM EDTA, 1% Triton X-100, 10% glycerol, 1 mM DTT, 0.5 mM deoxycholate]. Both buffers were supplemented with protease inhibitor cocktail (Sigma). […] The lysates were cleared by centrifugation at 15,000 rpm for 10 min.

Axin2 in DLD-1 cells = assay: Expression of Axin2 in DLD-1 cells; assay type: cell-based; details: exposure for 2 h
From the text: Aberrant transcriptional induction of Wnt/β-catenin target genes is typically observed in CRC cells that harbor loss-of-function mutations in the APC tumor suppressor. […] See Chen et al. (2007), which is incorporated herein by reference.

[2] = molecular target: T2, purified Tnks1 SAM-PARP protein (Homo sapiens, UniProt O95271); assay: In vitro Tnks activity assay, histone parsylation (HT Universal Color PARP Assay Kit); assay type: biochemical; details: parsylation of immobilized histone, colorimetric, FIG. 2A
T2 construct: purified Tnks1 SAM-PARP protein; provided by Herwig Schüler (gift, not a vendor)
Experimental: Parsylation of immobilized histone protein was determined by colorimetric detection of incorporated biotinylated NAD+ in 96 well format.

TNKS1 = TNKS1 (Homo sapiens, UniProt O95271); assay: PARP profiling, parsylation of immobilized histone; assay type: biochemical; details: IWR compounds 10 μM
TNKS2 = TNKS2 (Homo sapiens, UniProt Q9H2K2); assay: PARP profiling, parsylation of immobilized histone; assay type: biochemical; details: IWR compounds 10 μM
TNKS2, sequence (Q9H2K2 whole entry): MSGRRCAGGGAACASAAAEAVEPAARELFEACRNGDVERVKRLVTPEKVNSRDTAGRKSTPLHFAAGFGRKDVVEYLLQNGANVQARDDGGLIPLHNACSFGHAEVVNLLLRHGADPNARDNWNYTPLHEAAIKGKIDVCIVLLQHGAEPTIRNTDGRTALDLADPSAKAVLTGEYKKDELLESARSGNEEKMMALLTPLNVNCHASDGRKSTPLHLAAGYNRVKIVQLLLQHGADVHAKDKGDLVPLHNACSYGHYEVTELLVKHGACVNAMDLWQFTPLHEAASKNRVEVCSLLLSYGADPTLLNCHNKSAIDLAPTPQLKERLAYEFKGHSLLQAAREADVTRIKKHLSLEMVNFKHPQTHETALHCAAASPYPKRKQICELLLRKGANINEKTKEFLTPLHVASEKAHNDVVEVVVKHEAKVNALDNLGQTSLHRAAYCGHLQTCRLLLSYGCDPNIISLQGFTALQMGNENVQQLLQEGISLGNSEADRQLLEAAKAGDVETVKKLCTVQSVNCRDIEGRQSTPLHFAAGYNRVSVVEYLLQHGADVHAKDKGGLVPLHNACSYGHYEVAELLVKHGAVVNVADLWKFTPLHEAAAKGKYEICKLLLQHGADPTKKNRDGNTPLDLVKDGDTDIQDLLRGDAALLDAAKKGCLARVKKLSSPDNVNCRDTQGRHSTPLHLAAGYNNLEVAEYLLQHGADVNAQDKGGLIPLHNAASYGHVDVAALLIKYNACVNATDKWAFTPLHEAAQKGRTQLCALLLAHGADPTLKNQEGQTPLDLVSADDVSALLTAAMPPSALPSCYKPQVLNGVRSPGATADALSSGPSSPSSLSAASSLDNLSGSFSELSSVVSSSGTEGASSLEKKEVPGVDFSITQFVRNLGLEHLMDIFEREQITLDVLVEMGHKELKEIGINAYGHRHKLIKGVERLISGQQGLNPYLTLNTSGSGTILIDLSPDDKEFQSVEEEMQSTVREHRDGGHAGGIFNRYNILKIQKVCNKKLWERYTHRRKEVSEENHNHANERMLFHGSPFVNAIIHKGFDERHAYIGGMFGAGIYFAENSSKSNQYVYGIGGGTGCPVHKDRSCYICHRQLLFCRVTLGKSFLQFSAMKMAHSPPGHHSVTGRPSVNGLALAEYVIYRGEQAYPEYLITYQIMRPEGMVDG

T2 sequence (O95271 1030-1317 limits assumed): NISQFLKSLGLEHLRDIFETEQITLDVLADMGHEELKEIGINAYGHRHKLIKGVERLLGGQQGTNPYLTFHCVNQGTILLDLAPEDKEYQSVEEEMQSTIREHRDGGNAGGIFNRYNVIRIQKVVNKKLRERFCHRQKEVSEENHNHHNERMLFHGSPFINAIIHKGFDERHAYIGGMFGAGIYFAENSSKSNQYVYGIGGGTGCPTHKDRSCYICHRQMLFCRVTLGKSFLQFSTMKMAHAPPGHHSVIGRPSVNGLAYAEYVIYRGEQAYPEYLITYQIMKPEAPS
TNKS1, sequence (O95271 whole entry): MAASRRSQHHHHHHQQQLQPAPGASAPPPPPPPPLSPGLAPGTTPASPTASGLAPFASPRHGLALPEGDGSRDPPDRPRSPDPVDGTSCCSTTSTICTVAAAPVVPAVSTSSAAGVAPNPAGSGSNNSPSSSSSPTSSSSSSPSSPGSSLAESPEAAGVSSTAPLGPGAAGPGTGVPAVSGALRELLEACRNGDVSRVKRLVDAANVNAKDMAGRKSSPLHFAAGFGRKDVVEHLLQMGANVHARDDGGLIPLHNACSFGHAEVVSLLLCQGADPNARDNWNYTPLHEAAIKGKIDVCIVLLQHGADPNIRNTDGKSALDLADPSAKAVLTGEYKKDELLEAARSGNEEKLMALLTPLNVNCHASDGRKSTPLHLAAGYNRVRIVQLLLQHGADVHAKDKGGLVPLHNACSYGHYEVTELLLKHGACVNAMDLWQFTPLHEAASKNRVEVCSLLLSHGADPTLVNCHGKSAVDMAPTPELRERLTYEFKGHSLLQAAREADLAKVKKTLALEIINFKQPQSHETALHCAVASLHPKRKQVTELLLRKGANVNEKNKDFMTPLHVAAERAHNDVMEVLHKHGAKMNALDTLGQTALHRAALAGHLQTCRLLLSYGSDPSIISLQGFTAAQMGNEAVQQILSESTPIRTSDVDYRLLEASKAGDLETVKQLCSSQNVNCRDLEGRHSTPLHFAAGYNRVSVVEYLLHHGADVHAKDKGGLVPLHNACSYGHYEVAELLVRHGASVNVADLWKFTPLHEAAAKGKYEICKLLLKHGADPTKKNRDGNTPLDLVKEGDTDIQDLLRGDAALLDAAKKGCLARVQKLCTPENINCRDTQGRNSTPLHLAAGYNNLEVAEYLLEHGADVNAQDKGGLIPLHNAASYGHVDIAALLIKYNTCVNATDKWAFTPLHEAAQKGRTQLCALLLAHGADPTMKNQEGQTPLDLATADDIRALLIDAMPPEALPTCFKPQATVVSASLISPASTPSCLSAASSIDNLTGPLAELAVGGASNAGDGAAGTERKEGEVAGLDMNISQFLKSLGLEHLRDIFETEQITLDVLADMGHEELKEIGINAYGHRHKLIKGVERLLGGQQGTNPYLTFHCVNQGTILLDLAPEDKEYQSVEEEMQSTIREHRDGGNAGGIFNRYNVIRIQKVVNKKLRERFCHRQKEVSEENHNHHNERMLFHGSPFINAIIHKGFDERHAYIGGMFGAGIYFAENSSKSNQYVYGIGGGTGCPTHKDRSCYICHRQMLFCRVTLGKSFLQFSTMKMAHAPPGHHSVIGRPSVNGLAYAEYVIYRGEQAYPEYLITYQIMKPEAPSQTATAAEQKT

Row | SMILES | telomerase activity (telomerase) | Tnks and Axin protein levels [1] | β-catenin protein level [1] | expression of Axin2 (Axin2 in DLD-1 cells) | ability to inhibit purified recombinant Tnks1 protein [2] | inhibition at 10 µM (TNKS1) [%] | inhibition at 10 µM (TNKS2) [%]
1 | O=C(Nc1cccc2cccnc12)c1ccc(N2C(=O)[C@@H]3[C@H](C2=O)[C@@H]2C=C[C@H]3C2)cc1 [IWR-1] | direct inactivation of telomerase by Tnks inhibitors was ruled out | induce stabilization of both Tnks enzymes and Axin proteins | promote destruction of β-catenin | decrease in the expression of Axin2 |  |  | 
2 | CCN(C(=O)C1CCN(S(=O)(=O)c2cc3c(cc2Br)CCN3C(C)=O)CC1)c1cccc(C)c1 [IWR-8] |  |  |  |  | directly target Tnks | 99 | 99
